Like-named read-outs stand apart in the source and are kept apart here.
Legend:
[1] = tested on: human myeloid leukaemia HL-60 cells; assay: Alamar Blue general cytotoxicity assay, HL-60 cells; type: cell-based; conditions: read-out: IC50 HL-60 cells
Description: (§1) The anti-trypanosomal activities and the general cytotoxicities of chelators were evaluated using the Alamar Blue® assay. For each reagent, the 50% inhibitory concentration (IC50) value, i.e. the concentration of a compound necessary to reduce the growth rate of the cells by 50% of that of controls, was determined.
(§2) Bloodstream forms of T. brucei TC221 was derived from the stock 427 [24] and was obtained from Prof. Peter Overath (Max-Planck Institute für Biologie, Tübingen, Germany). The animal origin of the T. brucei stock 427 cannot be definitely clarified anymore. Bloodstream forms of T. congolense STIB910 was cloned from T. congolense STIB249 which was isolated from a lion in Tansania in 1971 [25]. T. congolense STIB910 was kindly provided by Prof. Reto Brun (Swiss Tropical Institute, Switzerland). Human myeloid leukaemia HL-60 cells were obtained from the Deutsche Sammlung von Mikroorganismen und Zellkulturen GmbH (Braunschweig, Germany).
(§3) Bloodstream forms of T. brucei and T. congolense were grown in Baltz medium (EMEM plus 25 mM HEPES, 2.5 mM glucose, 1 mM Na-pyruvate, 0.05 mM hypoxanthine, 0.001 mM thymidine, 0.04 mM adenosine, 0.025 mM bathocuproindisulfonic acid, pH 7.5, 10 ml/l nonessential amino acids (100×)) supplemented with 16.7% heat-inactivated foetal bovine serum and goat serum, respectively, and 0.2 mM 2-mercaptoethanol. Human myeloid leukaemia HL-60 cells were propagated in RPMI 1640 medium supplemented with 2 mM L-glutamine and 10% heat-inactivated foetal bovine serum. All cultures were maintained in a humidified atmosphere containing 5% CO2 at 37°C (T. brucei and HL-60 cells) or at 34°C (T. congolense).
(§4) Cells were seeded into 96-well tissue culture plates in 200 μl medium containing various concentrations of chelators dissolved in H2O (deferoxamine, 2,3-dihydroxybenzoic acid, ethylenediamine-di-o-hydroxyphenylacetic acid, 5-sulfosalicylic acid, tropolone, 5-methyl-tropolone, 2,2'-bipyridine, 1,10-phenanthroline), 99% ethanol (2,4,6-tris(2pyridyl)-1,3,5-triazine, 4,7-diphenyl-1,10-phenanthroline, 8-hydroxyquinoline, dimethylglyoxime, quercetin), or 100% DMSO (bathocuproine). The controls contained the respective solvent alone. […] To ensure that the cells were in logarithmic growth phase during the entire experiment, they were seeded at an initial density of 1 × 10^4 T. brucei/ml, 4 × 10^5 T. congolense/ml, and 1 × 10^5 HL-60/ml, respectively. After 24 h (trypanosomes) or 43 h (HL-60) incubation, 20 μl of the colorimetric viability indicator Alamar Blue® was added to each well. The cells were incubated for a further 24 h (trypanosomes) or 5 h (HL-60) so that the total incubation time was 48 h. Then, the plates were read on a Dynatech MR5000 ELISA reader (Denkendorf, Germany), using a test wavelength of 550 nm and a reference wave length of 630 nm. Each test was set up in duplicate and repeated three times. The IC50 value was determined by linear interpolation according to the method described in [27].

[2] = tested on: bloodstream forms of T. brucei 427-221a; assay: Alamar Blue growth inhibition assay, T. brucei bloodstream forms; type: cell-based, Trypanosoma brucei; conditions: for IC50 ratio T. brucei/HL-60: IC50 ratio of cytotoxic to trypanocidal activity (selectivity index); for IC50: read-out: IC50 T. brucei
Description: as §1, §2, §3, §4

[3] = tested on: bloodstream forms of T. congolense STIB910; assay: Alamar Blue growth inhibition assay, T. congolense bloodstream forms; type: cell-based, Trypanosoma congolense; conditions: for IC50 ratio T. congolense/HL-60: IC50 ratio of cytotoxic to trypanocidal activity (selectivity index); for IC50: read-out: IC50 T. congolense
Description: as §1, §2, §3, §4

[4] = tested on: bloodstream forms of T. congolense STIB910; set-up: method as in PMID 11582539; conditions: bloodstream forms of T. congolense STIB910, identical experimental conditions; cited from earlier work
[5] = tested on: bloodstream forms of T. brucei 427-221a; set-up: method as in PMID 11582539; conditions: cited from earlier work
[6] = human myeloid leukaemia HL-60 cells, 48 h total incubation, Alamar Blue
[7] = Trypanosoma brucei, bloodstream forms T. brucei 427-221a, 48 h total incubation, Alamar Blue, 37°C
[8] = Trypanosoma congolense, bloodstream forms T. congolense STIB910, 48 h total incubation, Alamar Blue, 34°C
[9] = Trypanosoma congolense, STIB910, 48 h
[10] = bloodstream forms T. brucei 427-221a, 48 h total incubation, Alamar Blue, 37°C

Compound	IC50 [1, 6] [µM]	IC50 ratio T. brucei/HL-60 [2]	IC50 [2, 7] [µM]	IC50 ratio T. congolense/HL-60 [3]	IC50 [3, 8] [µM]	also measured
O=c1cccccc1O [Tropolone]	6.2	0.5	12.5	0.3	18.7	
O=c1c(O)c(-c2ccc(O)c(O)c2)oc2cc(O)cc(O)c12 [Quercetin]	> 100	>6.1	16.3	>1.6	62.6	
CC(=O)NCC(=O)O.CC(=O)NCC(=O)O.N=C(N)c1ccc(N=NNc2ccc(C(=N)N)cc2)cc1 [diminazene aceturate]						IC50 [4]: 0.5 µM
Cc1cc(-c2ccccc2)c2ccc3c(-c4ccccc4)cc(C)nc3c2n1 [Bathocuproine, 2,9-dimethyl-4,7-diphenyl-1,10-phenanthroline]	> 10	>3.3	3		> 10	
c1cnc2c(c1)ccc1cccnc12 [1,10-Phenanthroline]	8.5	2.6	3.3	1.6	5.3	
CC(=O)N(O)CCCCCNC(=O)CCC(=O)N(O)CCCCCNC(=O)CCC(=O)N(O)CCCCCN [Deferoxamine]						IC50 ([1]; Homo sapiens, HL-60, 48 h): 97 µM; IC50 ([2]; Trypanosoma brucei, 48 h): 3.3 µM; IC50 [3, 9]: 3.4 µM
CC(=NO)C(C)=NO [Dimethylglyoxime]	> 100		> 100		> 100	
c1ccc(-c2ccnc3c2ccc2c(-c4ccccc4)ccnc23)cc1 [4,7-Diphenyl-1,10-phenanthroline]	48.3		2		4.5	
Oc1cccc2cccnc12 [8-Hydroxyquinoline]						IC50 ([1]; Homo sapiens, HL-60, 48 h): 7.7 µM; IC50 ([2]; Trypanosoma brucei, 48 h): 2.1 µM; IC50 [3, 9]: 206 µM
O=C(O)C(NCCNC(C(=O)O)c1ccccc1O)c1ccccc1O (stereo not drawn) [Ethylenediamine-di-o-hydroxyphenylacetic acid]	325	2.7				IC50 [2, 10]: 120 µM
Cc1ccc(C(=O)Nc2ccc(S(=O)(=O)O)c3cc(S(=O)(=O)O)cc(S(=O)(=O)O)c23)cc1NC(=O)c1cccc(NC(=O)Nc2cccc(C(=O)Nc3cc(C(=O)Nc4ccc(S(=O)(=O)O)c5cc(S(=O)(=O)O)cc(S(=O)(=O)O)c45)ccc3C)c2)c1 [suramin]						IC50 ([5]; bloodstream forms of T. brucei 427-221a, identical experimental conditions): 0.4 µM; IC50 ratio (selectivity index) ([5]; cytotoxic/trypanocidal activity, drug used for sleeping sickness): 1944
c1ccc(-c2nc(-c3ccccn3)nc(-c3ccccn3)n2)nc1 [2,4,6-Tris(2-pyridyl)-1,3,5-triazine]	90.1	3.2	28.6	1.2	75	
Cc1ccc(O)c(=O)cc1 [5-Methyl-tropolone]	31.1	2.0		1.6		IC50 [2, 10]: 15.7 µM; IC50 ([3]; bloodstream forms T. congolense STIB910, 48 h total incubation, Alamar Blue, 34°C): 20 µM
O=C(O)c1cccc(O)c1O [2,3-Dihydroxybenzoic acid]			220			
c1ccc(-c2ccccn2)nc1 [2,2'-Bipyridine]						IC50 ([1]; Homo sapiens, HL-60, 48 h): 28.3 µM; IC50 ([2]; Trypanosoma brucei, 48 h): 46.2 µM; IC50 [3, 9]: 67 µM
O=C(O)c1cc(S(=O)(=O)O)ccc1O [5-Sulfosalicylic acid]						IC50 ([1]; Homo sapiens, HL-60, 48 h): > 1000 µM; IC50 ([2]; Trypanosoma brucei, 48 h): > 1000 µM; IC50 [3, 9]: > 1000 µM
